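How tested: cells in 96-well plates exposed to compound for 48 hours at five concentrations. TGI marks complete inhibition of growth.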
Experiments:
Assay in all cases: NCI-60 cell line screen, 48 h
CAKI-1 renal = tested on: CAKI-1 renal
HL-60(TB) leukemia = tested on: HL-60(TB) leukemia
KM20L2 colon = tested on: KM20L2 colon
LXFL 529 NSCLC = tested on: LXFL 529 NSCLC
NCI-H226 lung = tested on: NCI-H226 lung
SF-268 CNS = tested on: SF-268 CNS
SF-539 CNS = tested on: SF-539 CNS
UACC-62 melanoma = tested on: UACC-62 melanoma

| Compound | TGI (CAKI-1 renal) [µM] | TGI (HL-60(TB) leukemia) [µM] | TGI (KM20L2 colon) [µM] | TGI (LXFL 529 NSCLC) [µM] | TGI (NCI-H226 lung) [µM] | TGI (SF-268 CNS) [µM] | TGI (SF-539 CNS) [µM] | TGI (UACC-62 melanoma) [µM] |
| --- | --- | --- | --- | --- | --- | --- | --- | --- |
| O=C1C=CC(=CC=C2C=CN(CCCCCCCCCCC(=O)NCCCCCCCCCCCC(=O)O)C=C2)C=C1 | > 100 | > 100 | > 100 | > 100 | > 100 | > 100 | > 100 | > 100 |
| CC12CCC(=O)N1c1cccnc1N2 (stereo not given) | > 100 | > 100 | > 100 | > 100 | > 100 | > 100 | > 100 | > 100 |
| Cc1ccc(N2C(=O)N(c3ccc(C)cc3)C3(SC=NN3C)C2=O)cc1 (stereo not given) | > 100 | > 100 | > 100 | > 100 | > 100 | > 100 | > 100 | > 100 |
| C[Si](C)(C)CN1C(=O)c2ccccc2C1(O)c1ccccc1 (stereo not given) | > 91.6 | > 100 | > 100 | > 100 | > 100 | > 100 | > 100 | > 100 |
| C1=NC(N(Cc2ccccc2)Cc2ccccc2)N(Cc2ccccc2)N1 (stereo not given) | 46.1 | > 100 | 30.8 | 30.7 | 33.5 | 47.4 | 29.5 | 27.2 |

Reference: PubChem BioAssay (NCI)
